The values below are quoted from earlier work in patent US20220202844A1, “DRUG DELIVERY COMPOSITION AND A METHOD OF ADMINISTERING THE DRUG” (priority 2020, published 2022).

Usually aqueous solubility stands for how much of the substance goes into solution per volume.

Structures are written as SMILES. Converted amounts (≈) assume the structure as drawn.

For this data set the following is noted: background statement.

With `NC(=O)c1ccc[n+]([C@@H]2O[C@H](COP(=O)([O-])OP(=O)(O)OC[C@H]3O[C@@H](n4cnc5c(N)ncnc54)[C@H](O)[C@@H]3O)[C@@H](O)[C@H]2O)c1` [NAD+, nicotinamide adenine dinucleotide], the aqueous solubility was 50 mg/mL (≈ 75.4 mM).
